Reference: patent publication US20220016241A1, “COMPOSITIONS AND METHODS FOR REDUCING ANTIGEN-SPECIFIC IMMUNOGENICITY” (The Research Foundation for The State University of New York, priority 2013, published 2022)

What was measured:
[1] = test system: Humira; experiment: Binding of OPLS to Humira
Method: The binding of OPLS to several therapeutic proteins was evaluated using fluorescence spectroscopy (FIG. 2). The fluorescence emission reduced as the concentration of OPLS was increased. The fluorescence intensity changes were highest for FVIII compared to GAA and OVA. […] The high affinity binding for FVIII is consistent with the existence of a putative lipid binding domain.
As shown in FIG. 6(d), anti-Humira antibody titers were lower in mice that were co-administered OPLS (5 mg dose) and Humira® ([…]) via the s.c. route than in those administered Humira® alone ([…]) (also via the s.c. route) after 4 weekly injection followed by a 2 weeks washout period. Titer values were obtained by classical sandwitch ELISA were the plates was coated with Humira before incubation with dilutions with plasma samples, anti-Humira antibodies were detected with a rat anti-mouse-HRP conjugated antibodies. […] It is highly doubtful that the weak binding seen here is “shielding” an immunologic epitope.

[2] = test system: anti-FVIII titers; experiment: Effect of OPLS on in-vivo immunogenicity of FVIII after sc administration; parameters: species or system HA mice; settings: days 1, 8, 10, 12
Method: Effect of OPLS on the immunogenicity of FVIII after SC administration in-vivo: 21 HA mice between 6 and 8 weeks of age were divided into 3 groups: group one received 1 ug FVIII SC in the abdominal region. Group two received 1 μg FVIII plus 0.4 mg OPLS SC in the abdominal region and group 3 received 1 μg FVIII plus 5 mg OPLS sc in the abdominal region. Incubation of FVIII with OPLS at 37° C. for 30 minutes ensures complexation, but for this example, OPLS and FVIII were combined at the desired concentrations at room temperature (22° C.) and immediately administered (within 1 minute). This treatment was given one day 1, 8, 10 and 12. Three days after the last injection the animals were sacrificed. Blood was centrifuged at 7500 rpm for 5 min at 4 degrees Celsius. Plasma was then removed and stored at −80 degrees Celsius until analysis.
Total titers were determined by classical standard ELISA. Anti-FVIII antibody (ESH8) was used as a control. Statistics was done on the arithmetic mean of the log transformed data, graphs are reported as geometric means. Non-responders were given the value of the plate specific factor for uniformity. […]
Statistics: Non-parametric one-way ANOVA with Tukey's post hoc analysis was used for the analysis of titer values where appropriate. Student t-test was used for comparing mean intensity of fluorescence (MIF) for flow cytomerty data. […]

[3] = test system: TGF-β; experiment: Cytokine profile of BMDCs in vitro, TGF-β ELISA; format: cell-based, HA mice; settings: 1 μg/ml FVIII with 0-50 mM OPLS, 48 hours, n=4
Method: Generation of bone marrow derived dendritic cells (BMDC): Bone marrow was isolated from 6 to 8 week old naïve HA. Briefly, bone marrow was cultured in RPMI media supplemented with […] (low endotoxin), 2-mercaptoethanol, Pen/Strep and […] GMCSF. Media was changed on days 3, 6 and 8 of culture and DCs were used on day 9. BMDC are then harvested and used as needed. To verify the differentiation of bone marrow cells into DCs, CD11c surface expression was confirmed by flow cytometry using anti-CD11c-FITC antibody with appropriate isotope controls.
Effects of OPLS on cytokine profile of BMDCs in vitro: The effects of OPLS on cytokine secretion by dendritic cells were investigated. On day 9 BMDCs, generated as above, were treated with FVIII as an antigen in the presence of increasing dose of OPLS. Changes in production of pro-inflammatory cytokines TNF-α and IL12p70 as well as the regulatory cytokine TGF-β were monitored as a function of dose. BMDCs were exposed to 1 μg/ml FVIII with increasing dose of OPLS (0, 0.5, 1, 10, 25, 50 mM). 1 M stock of OPLS was prepared by adding the appropriate amount of OPLS directly to RPMI media, and pH was adjusted using sterile 3N and 1N NaOH. […] TGF-β, TNF-α and IL-12p70 concentrations were determined using standard ELISA (R&D System Inc. Minneapolis, Minn., USA or Invitrogen […], Calif.).

[4] = test system: anti-IgG antibody titers; experiment: Effect of OPLS on human IgG immunogenicity; format: in vivo, mice; settings: 0.4 mg OPLS with 1 μg human IgG s.c., days 1, 8, 10, 12
Method: Materials and Methods: 8 animals were used for this pilot study, 4 animals were injected with Human-IgG (Sigma) alone (1 μg) or with Human IgG plus OPLS (1 μg human IgG plus 0.4 mg OPLS). The study was done with 4 injections over 2 weeks period as follows: day 1, day 8, day 10 and day 12 followed by a 3 days washout period. ELISA was done to measure total titers. Briefly, Nunc-Maxisorb 96-well plates were coated overnight at 4° C. with 50 μl/well of 2.5 μg/ml Human IgG. Plates were then washed and blocked with 1% bovine serum albumin (blocking buffer). 50 μl/well of various dilutions of the sample were added to the plate and incubated at room temperature for 2 h. Plasma samples from animals exposes to a sham treatment (buffer only) served as controls. The plates were then washed and incubated with 50 μl of goat anti-mouse anti-body-HRP conjugate at a 1:50000 dilution in blocking buffer at room temperature for 1 h. Color was developed for 20 min with 100 μl of TMB solution. 100 μl of 2 N H2SO4 was used to stop the reaction. Optical density at […] was measured using a plate reader. Non-responders were given the value of the plate specific factor for uniformity.
In this pilot study, animals were injected with Human-IgG (Sigma) alone (1 μg) or with OPLS […]. […]

[5] = test system: anti-FVIII antibody titers; experiment: FVIII-specific tolerance with OPLS, OPDS or Dex, rechallenge with free FVIII (FIG. 11); settings: s.c. co-administration with FVIII, then s.c. free FVIII

N[C@@H](COP(=O)(O)O)C(=O)O [OPLS, O-Phospho-L-Serine]
Binding between OPLS and Humira [1]: weak binding
Total anti-FVIII titer ([2]; 1 μg FVIII with high dose OPLS (5 mg/injection) sc, geometric mean±SD): 5.34±5.8 arbitrary units
Total anti-FVIII titer ([2]; 1 μg FVIII with low dose OPLS (0.4 mg/injection) sc, not statistically significant vs FVIII alone): 137±1.4 arbitrary titer units
TGF-β production by BMDC [3]: dose dependent increase
Anti-IgG antibody titers vs IgG alone [4]: lower
FVIII-specific hypo-responsiveness upon rechallenge [5]: hypo-responsiveness
